Laboratory results as given in patent US8586619B2, “Agents of calcium ion channel modulators” (VM Therapeutics LLC, priority 2007, dated 2013).

Tested on: Formalin induced pain in rat animal models of hyperalgesia
Test: Rat Formalin Paw Test (in vivo assay)
Settings: flinches, shown in FIGS. 1 and 2
Procedure: Rat Formalin Paw Test (in Vivo Assay): Compounds were assessed for their ability to inhibit the behavioral response evoked by an injection of formalin (50 μl of 5% formalin). A metal band was affixed to the left hind paw of male Holtzman rats (225-250 g, Harlan Industries, Indianapolis Ind.) and each rat was conditioned to the band for 60 min within a plastic cylinder (15 cm diameter). Rats were dosed with either vehicle, positive control compound or a test compound either before (local) or after (systemic) formalin challenge. For local administration, compounds were prepared in either a 10:7.5 vehicle of saline (in mL) and (D)- or (L)-Tartaric acid (in mg), or a 1:1:6 vehicle of DMA (N,N-Dimethylacetamide), Tween 80 and saline, and injected […] into the dorsal surface of the right hind paw of the rat 60 min prior to formalin. The number of flinches was counted continuously for 60 min using an automated nociception analyzer (UCSD Anesthesiology Research, San Diego, Calif.). Statistical significance was determined by comparing the total flinches detected in the early (0-10 min, Phase I) and late (11-60 min) phase with an unpaired t-test. […]

Row | SMILES | reduction of Formalin induced pain
1 | CC1CCCC(NC(=O)C2N(C(C)CCc3ccccc3)C(=O)C3C(C(=O)Nc4cc(Cl)cc(Cl)c4)C4C=CC32O4)C1C (centres unmarked) [Compound 52, 3-(1-Methyl-3-phenyl-propyl)-4-oxo-10-oxa-3-aza-tricyclo[5.2.1.0^1,5]dec-8-ene-2,6-dicarboxylic acid 2-[(3,5-dichloro-phenyl)-amide]6-[(2,3-dimethyl-cyclohexyl)-amide]] | reduction of Formalin induced pain
2 | O=C(c1ccc(F)cc1)C1CCN(CCn2c(=O)[nH]c3ccccc3c2=O)CC1 [Compound 401, 3-{2-[4-(4-Fluoro-benzoyl)-piperidin-1-yl]-ethyl}-1H-quinazoline-2,4-dione] | reduction of Formalin induced pain
